# Measurements taken from article PMC5218480 (PLoS ONE, 2017).
# System: MV-4-11 cells
# Experiment: Gene expression microarray analysis (Affymetrix PrimeView) and GSEA
# Format: cell-based, human
# Parameters: RFU PODN (11730768_x_at) / Fold change /veh PODN (11730768_x_at) / RFU LINC00158 (11744669_a_at) / Fold change /veh LINC00158 (11744669_a_at) / RFU DUSP10 (11751237_a_at) / Fold change /veh DUSP10 (11751237_a_at) / RFU ID3 (11757404_x_at) / Fold change /veh ID3 (11757404_x_at) / RFU PLEKHG5 (11737974_s_at) / Fold change /veh PLEKHG5 (11737974_s_at) / RFU LRRC4B (11730491_at) / Fold change /veh LRRC4B (11730491_at) / RFU GIMAP4 (11747438_a_at) / Fold change /veh GIMAP4 (11747438_a_at) / RFU KRT8 (11758183_x_at) / Fold change /veh KRT8 (11758183_x_at) / RFU CNN1 (11734310_a_at) / Fold change /veh CNN1 (11734310_a_at) / RFU VPS37D (11726825_at) / Fold change /veh VPS37D (11726825_at) / RFU C10orf10 (11716522_x_at) / Fold change /veh C10orf10 (11716522_x_at) / RFU KIR2DL2 /// KIR2DL4 /// KIR2DL5A /// KIR2DL5B /// KIR2DS1 /// KIR2DS2 /// KIR2DS3 /// KIR2DS4 /// KIR3DL3 /// KIR3DL3 /// KIR3DS1 (11738374_at) / Fold change /veh KIR2DL2 /// KIR2DL4 /// KIR2DL5A /// KIR2DL5B /// KIR2DS1 /// KIR2DS2 /// KIR2DS3 /// KIR2DS4 /// KIR3DL3 /// KIR3DL3 /// KIR3DS1 (11738374_at) / RFU C1QL1 (11718748_at) / Fold change /veh C1QL1 (11718748_at) / RFU TMPRSS4 (11747572_a_at) / Fold change /veh TMPRSS4 (11747572_a_at) / RFU HAMP (11756126_x_at) / Fold change /veh HAMP (11756126_x_at) / RFU RNFT2 (11725882_a_at) / Fold change /veh RNFT2 (11725882_a_at) / RFU NR4A2 (11747474_a_at) / Fold change /veh NR4A2 (11747474_a_at) / RFU ABCC12 (11746883_a_at) / Fold change /veh ABCC12 (11746883_a_at) / RFU TMEM136 (11760407_x_at) / Fold change /veh TMEM136 (11760407_x_at) / RFU CLDN22 /// WWC2 (11732394_at) / Fold change /veh CLDN22 /// WWC2 (11732394_at) / RFU HLA-DPB1 (11760878_x_at) / Fold change /veh HLA-DPB1 (11760878_x_at) / RFU SPINT1 (11716480_a_at) / Fold change /veh SPINT1 (11716480_a_at) / RFU GAP43 (11754022_s_at) / Fold change /veh GAP43 (11754022_s_at) / RFU A4GNT (11735810_at) / Fold change /veh A4GNT (11735810_at) / RFU PRB3 (11715151_x_at) / Fold change /veh PRB3 (11715151_x_at) / RFU TUBB4B (11761932_at) / Fold change /veh TUBB4B (11761932_at) / RFU CAPN14 (11732068_a_at) / Fold change /veh CAPN14 (11732068_a_at) / RFU TMCC2 (11721928_a_at) / Fold change /veh TMCC2 (11721928_a_at) / RFU IRGQ (11745062_a_at) / Fold change /veh IRGQ (11745062_a_at) / RFU FAM174B (11720279_a_at) / Fold change /veh FAM174B (11720279_a_at) / RFU TMPRSS4 (11748680_a_at) / Fold change /veh TMPRSS4 (11748680_a_at) / RFU FAM212B (11763350_a_at) / Fold change /veh FAM212B (11763350_a_at) / RFU PLEKHG5 (11743358_a_at) / Fold change /veh PLEKHG5 (11743358_a_at) / RFU ZSCAN30 (11745921_a_at) / Fold change /veh ZSCAN30 (11745921_a_at) / RFU CMKLR1 (11741424_a_at) / Fold change /veh CMKLR1 (11741424_a_at) / RFU LOC101060620 /// MAPK8IP1 (11723275_at) / Fold change /veh LOC101060620 /// MAPK8IP1 (11723275_at) / RFU SPTSSB (11747773_x_at) / Fold change /veh SPTSSB (11747773_x_at) / RFU PRSS12 (11739890_at) / Fold change /veh PRSS12 (11739890_at) / RFU BIN1 (11741810_x_at) / Fold change /veh BIN1 (11741810_x_at) / RFU WNT11 (11732464_a_at) / Fold change /veh WNT11 (11732464_a_at) / RFU C10orf10 (11716521_a_at) / Fold change /veh C10orf10 (11716521_a_at) / RFU C5orf56 (11738089_at) / Fold change /veh C5orf56 (11738089_at) / RFU CYB561 (11721691_x_at) / Fold change /veh CYB561 (11721691_x_at) / RFU ANKRD19P (11752326_a_at) / Fold change /veh ANKRD19P (11752326_a_at) / RFU OR2T12 /// OR2T33 /// OR2T8 (11738714_s_at) / Fold change /veh OR2T12 /// OR2T33 /// OR2T8 (11738714_s_at) / RFU VCAN (11748164_a_at) / Fold change /veh VCAN (11748164_a_at) / RFU JSRP1 (11732532_at) / Fold change /veh JSRP1 (11732532_at) / RFU KRTAP10-11 (11738290_x_at) / Fold change /veh KRTAP10-11 (11738290_x_at) / RFU MYO3A (11730013_a_at) / Fold change /veh MYO3A (11730013_a_at) / RFU EBF3 (11725865_a_at) / Fold change /veh EBF3 (11725865_a_at) / RFU CAMK2N1 (11719241_x_at) / Fold change /veh CAMK2N1 (11719241_x_at) / RFU C5orf56 (11738088_a_at) / Fold change /veh C5orf56 (11738088_a_at) / RFU OLFML3 (11715873_a_at) / Fold change /veh OLFML3 (11715873_a_at) / RFU LOC100653217 /// NTM (11731650_a_at) / Fold change /veh LOC100653217 /// NTM (11731650_a_at) / RFU MAPK11 (11762145_a_at) / Fold change /veh MAPK11 (11762145_a_at) / RFU FIZ1 (11724087_x_at) / Fold change /veh FIZ1 (11724087_x_at) / RFU OASL (11726364_x_at) / Fold change /veh OASL (11726364_x_at) / RFU SOX15 (11748057_x_at) / Fold change /veh SOX15 (11748057_x_at) / RFU CD79A (11719716_a_at) / Fold change /veh CD79A (11719716_a_at) / RFU HIST1H1D (11736915_at) / Fold change /veh HIST1H1D (11736915_at) / RFU CASKIN2 (11723855_a_at) / Fold change /veh CASKIN2 (11723855_a_at) / RFU LOC730098 (11760151_x_at) / Fold change /veh LOC730098 (11760151_x_at) / RFU OR4N2 (11742367_at) / Fold change /veh OR4N2 (11742367_at) / RFU PRRT2 (11749266_a_at) / Fold change /veh PRRT2 (11749266_a_at) / RFU SNX32 (11753110_a_at) / Fold change /veh SNX32 (11753110_a_at) / RFU CDHR5 (11726645_a_at) / Fold change /veh CDHR5 (11726645_a_at) / RFU RCAN1 (11760418_a_at) / Fold change /veh RCAN1 (11760418_a_at) / RFU FAM167A (11723789_a_at) / Fold change /veh FAM167A (11723789_a_at) / RFU FAM26E (11764081_at) / Fold change /veh FAM26E (11764081_at) / RFU ISYNA1 (11749810_s_at) / Fold change /veh ISYNA1 (11749810_s_at) / RFU ACY1 (11761880_at) / Fold change /veh ACY1 (11761880_at) / RFU 11764098_at / Fold change /veh 11764098_at / RFU SAMD14 (11745864_x_at) / Fold change /veh SAMD14 (11745864_x_at) / RFU NPB (11741838_a_at) / Fold change /veh NPB (11741838_a_at) / RFU TMPRSS6 (11731388_a_at) / Fold change /veh TMPRSS6 (11731388_a_at) / RFU KRTAP10-2 (11738614_at) / Fold change /veh KRTAP10-2 (11738614_at) / RFU ARHGAP8 /// PRR5-ARHGAP8 (11727945_x_at) / Fold change /veh ARHGAP8 /// PRR5-ARHGAP8 (11727945_x_at) / RFU KRTAP5-7 /// NADSYN1 (11734609_at) / Fold change /veh KRTAP5-7 /// NADSYN1 (11734609_at) / RFU RASL12 (11751679_a_at) / Fold change /veh RASL12 (11751679_a_at) / RFU CDKN2B (11736163_a_at) / Fold change /veh CDKN2B (11736163_a_at) / RFU PRF1 (11729649_at) / Fold change /veh PRF1 (11729649_at) / RFU, ZNF638 /// ZNF638-IT1 / Fold change vs veh, ZNF638 /// ZNF638-IT1 / RFU, PANK3 / Fold change vs veh, PANK3 / RFU, SH3YL1 / Fold change vs veh, SH3YL1 / RFU, ZEB2 / Fold change vs veh, ZEB2 / RFU, NRIP1 / Fold change vs veh, NRIP1 / RFU, PTTG1IP / Fold change vs veh, PTTG1IP / RFU, CAPN2 / Fold change vs veh, CAPN2 / RFU, MED14 / Fold change vs veh, MED14 / RFU, SNORA58 / Fold change vs veh, SNORA58 / RFU, C1orf63 / Fold change vs veh, C1orf63 / RFU, LRRFIP1 / Fold change vs veh, LRRFIP1 / RFU, NDUFAF7 / Fold change vs veh, NDUFAF7 / RFU, SLC12A2 / Fold change vs veh, SLC12A2 / RFU, IBTK / Fold change vs veh, IBTK / RFU, ESF1 / Fold change vs veh, ESF1 / Fold change vs veh, TMEM50B / RFU, TAOK1 / Fold change vs veh, TAOK1 / RFU, ACBD3 / Fold change vs veh, ACBD3 / RFU, TMA16 / Fold change vs veh, TMA16 / RFU, RWDD3 / Fold change vs veh, RWDD3 / RFU, BCAT1 / Fold change vs veh, BCAT1 / RFU, EDEM3 / Fold change vs veh, EDEM3 / RFU, TMEM33 / Fold change vs veh, TMEM33 / RFU, WDR75 / Fold change vs veh, WDR75 / RFU, AHCTF1 / Fold change vs veh, AHCTF1 / RFU, TFRC / Fold change vs veh, TFRC / RFU, ZDHHC17 / Fold change vs veh, ZDHHC17 / RFU, NOM1 / Fold change vs veh, NOM1 / RFU, ARL8B / Fold change vs veh, ARL8B / RFU, ZBTB11 / Fold change vs veh, ZBTB11 / RFU, TAMM41 / Fold change vs veh, TAMM41 / RFU, KIAA1704 /// LOC100996395 / Fold change vs veh, KIAA1704 /// LOC100996395 / RFU, ING1 / Fold change vs veh, ING1 / RFU, TRMT61B / Fold change vs veh, TRMT61B / RFU, FUBP3 / Fold change vs veh, FUBP3 / RFU, TP53 / Fold change vs veh, TP53 / RFU, TNKS2 / Fold change vs veh, TNKS2 / RFU, ZFP14 / Fold change vs veh, ZFP14 / RFU, ACTR2 / Fold change vs veh, ACTR2 / RFU, PPP3R1 / Fold change vs veh, PPP3R1 / RFU, PIK3R1 / Fold change vs veh, PIK3R1 / RFU, HNRNPA1 / Fold change vs veh, HNRNPA1 / RFU, RNF170 / Fold change vs veh, RNF170 / RFU, ZNF28 / Fold change vs veh, ZNF28 / RFU, RNGTT / Fold change vs veh, RNGTT / RFU, OGT / Fold change vs veh, OGT / RFU, BRD1 / Fold change vs veh, BRD1 / RFU, MARS / Fold change vs veh, MARS / RFU, ZNF655 / Fold change vs veh, ZNF655 / RFU, FAHD1 / Fold change vs veh, FAHD1 / RFU, BDP1 / Fold change vs veh, BDP1 / RFU, LRRCC1 / Fold change vs veh, LRRCC1 / RFU, ARID1A / Fold change vs veh, ARID1A / RFU, ZNF146 / Fold change vs veh, ZNF146 / RFU, ZNF330 / Fold change vs veh, ZNF330 / RFU, GPN3 / Fold change vs veh, GPN3 / RFU, C9orf123 / Fold change vs veh, C9orf123 / RFU, N4BP2L2 / Fold change vs veh, N4BP2L2 / RFU, ARFIP1 / Fold change vs veh, ARFIP1 / RFU, FAM179B / Fold change vs veh, FAM179B / RFU, BCL10 / Fold change vs veh, BCL10 / RFU, UHRF1BP1L / Fold change vs veh, UHRF1BP1L / RFU, BET1 / Fold change vs veh, BET1 / RFU, CNOT2 / Fold change vs veh, CNOT2 / RFU, ZNF268 / Fold change vs veh, ZNF268 / Fold change vs veh, ZNF507 / RFU, DGCR2 / Fold change vs veh, DGCR2 / RFU, WDSUB1 / Fold change vs veh, WDSUB1 / Fold change vs veh, HSP90B1 /// MIR3652 / RFU, ADSS / Fold change vs veh, ADSS / RFU, GK / Fold change vs veh, GK / RFU, ZNF148 / Fold change vs veh, ZNF148 / RFU, TAF9 / Fold change vs veh, TAF9 / RFU, SLC1A5 / Fold change vs veh, SLC1A5 / RFU, SLMO2 / Fold change vs veh, SLMO2 / RFU, ABCC4 / Fold change vs veh, ABCC4 / RFU, LOC101060439 /// RAP1B / Fold change vs veh, LOC101060439 /// RAP1B / RFU, RFX7 / Fold change vs veh, RFX7 / RFU, GTPBP10 / Fold change vs veh, GTPBP10 / RFU, CNEP1R1 / Fold change vs veh, CNEP1R1 / RFU, BIVM-ERCC5 /// ERCC5 / Fold change vs veh, BIVM-ERCC5 /// ERCC5 / RFU, ILF3 / Fold change vs veh, ILF3 / RFU 11762660_at / Fold change /veh 11762660_at / RFU VCAN (11757783_s_at) / Fold change /veh VCAN (11757783_s_at) / RFU DDX43 (11728927_at) / Fold change /veh DDX43 (11728927_at) / RFU KRT8 (11758188_x_at) / Fold change /veh KRT8 (11758188_x_at) / RFU NKD1 (11759106_at) / Fold change /veh NKD1 (11759106_at) / RFU SRD5A1 (11742802_a_at) / Fold change /veh SRD5A1 (11742802_a_at) / RFU TPSAB1 /// TPSB2 (11721975_s_at) / Fold change /veh TPSAB1 /// TPSB2 (11721975_s_at) / RFU GSTM3 (11746129_a_at) / Fold change /veh GSTM3 (11746129_a_at) / RFU IL23R (11737362_x_at) / Fold change /veh IL23R (11737362_x_at) / RFU TMEM51 (11727254_a_at) / Fold change /veh TMEM51 (11727254_a_at) / RFU PIWIL2 (11732686_x_at) / Fold change /veh PIWIL2 (11732686_x_at) / RFU ORM1 (11744905_x_at) / Fold change /veh ORM1 (11744905_x_at) / RFU CCDC152 (11743942_at) / Fold change /veh CCDC152 (11743942_at) / RFU ECM1 (11717891_a_at) / Fold change /veh ECM1 (11717891_a_at) / RFU IL23R (11748794_a_at) / Fold change /veh IL23R (11748794_a_at) / RFU TNFAIP8L3 (11732012_x_at) / Fold change /veh TNFAIP8L3 (11732012_x_at) / RFU MBOAT4 (11741988_at) / Fold change /veh MBOAT4 (11741988_at) / RFU 11764193_at / Fold change /veh 11764193_at / RFU TMEM53 (11763286_at) / Fold change /veh TMEM53 (11763286_at) / RFU MAGEB2 (11727129_at) / Fold change /veh MAGEB2 (11727129_at) / RFU TMEM200A (11744735_a_at) / Fold change /veh TMEM200A (11744735_a_at) / RFU CCDC152 (11751479_a_at) / Fold change /veh CCDC152 (11751479_a_at) / RFU FAM211A (11726209_a_at) / Fold change /veh FAM211A (11726209_a_at) / RFU RGS16 (11746705_a_at) / Fold change /veh RGS16 (11746705_a_at) / RFU VCAN (11755009_s_at) / Fold change /veh VCAN (11755009_s_at) / RFU RHOB (11743442_s_at) / Fold change /veh RHOB (11743442_s_at) / RFU RGS16 (11720943_a_at) / Fold change /veh RGS16 (11720943_a_at) / RFU RGS16 (11720944_at) / Fold change /veh RGS16 (11720944_at) / RFU, VPS4B / Fold change vs veh, VPS4B / RFU, CREB1 / Fold change vs veh, CREB1 / RFU, DNAJC13 / Fold change vs veh, DNAJC13 / RFU, GNAQ / Fold change vs veh, GNAQ / RFU, CDK5R1 / Fold change vs veh, CDK5R1 / RFU, ZRANB3 / Fold change vs veh, ZRANB3 / RFU, CUL4A / Fold change vs veh, CUL4A / RFU, CCNY / Fold change vs veh, CCNY / RFU, UFL1 / Fold change vs veh, UFL1 / RFU, COG3 / Fold change vs veh, COG3 / RFU, DIAPH2 / Fold change vs veh, DIAPH2 / RFU, SKA2 / Fold change vs veh, SKA2 / RFU, AFF3 / Fold change vs veh, AFF3 / RFU, LMF1 / Fold change vs veh, LMF1 / RFU, IPO11 / Fold change vs veh, IPO11 / RFU, DFFB / Fold change vs veh, DFFB / RFU, FOXP1 / Fold change vs veh, FOXP1 / RFU, CARD8 / Fold change vs veh, CARD8 / RFU, STRN3 / Fold change vs veh, STRN3 / RFU, ADK / Fold change vs veh, ADK / RFU, RASSF2 / Fold change vs veh, RASSF2 / RFU, WIPF1 / Fold change vs veh, WIPF1 / RFU, LARP1B / Fold change vs veh, LARP1B / RFU, RASA1 / Fold change vs veh, RASA1 / RFU, RB1 / Fold change vs veh, RB1 / RFU, PPFIA1 / Fold change vs veh, PPFIA1 / RFU, MAT2A / Fold change vs veh, MAT2A / RFU, CCT5 / Fold change vs veh, CCT5 / RFU, WDR92 / Fold change vs veh, WDR92 / RFU, CUX1 / Fold change vs veh, CUX1 / RFU, TTC7A / Fold change vs veh, TTC7A / RFU, TMEM135 / Fold change vs veh, TMEM135 / RFU, DEPTOR / Fold change vs veh, DEPTOR / RFU, CPM / Fold change vs veh, CPM / RFU, DNAJB6 / Fold change vs veh, DNAJB6 / RFU, CACNA2D3 / Fold change vs veh, CACNA2D3 / RFU, DTX4 / Fold change vs veh, DTX4 / RFU, TFCP2 / Fold change vs veh, TFCP2 / RFU, GMCL1 /// GMCL1P1 / Fold change vs veh, GMCL1 /// GMCL1P1 / RFU, AEBP2 / Fold change vs veh, AEBP2 / RFU, SNHG1 /// SNORD22 /// SNORD25 /// SNORD26 /// SNORD27 /// SNORD28 /// SNORD29 /// SNORD31 / Fold change vs veh, SNHG1 /// SNORD22 /// SNORD25 /// SNORD26 /// SNORD27 /// SNORD28 /// SNORD29 /// SNORD31 / Fold change (Aza/veh), C12orf56 (ProbeSet 11735607_a_at) / Fold change (ACY-1035/veh), C12orf56 (ProbeSet 11735607_a_at) / Fold change (Aza/veh), FGFR1OP (ProbeSet 11751329_s_at) / Fold change (ACY-1035/veh), FGFR1OP (ProbeSet 11751329_s_at) / Fold change (Aza/veh), VPS36 (ProbeSet 11739960_a_at) / Fold change (ACY-1035/veh), VPS36 (ProbeSet 11739960_a_at) / RFU SYPL1 (11715823_x_at) / Fold change /veh SYPL1 (11715823_x_at) / RFU IGFBP7 (11715501_s_at) / Fold change /veh IGFBP7 (11715501_s_at) / RFU REEP3 (11722064_at) / Fold change /veh REEP3 (11722064_at) / RFU IGLL1 (11728026_x_at) / Fold change /veh IGLL1 (11728026_x_at): dose or concentration left out as unconfirmed
# Details: MV-4-11 cells, 48 hours
smiles,measurement,value
Nc1ncn([C@@H]2O[C@H](CO)[C@@H](O)[C@H]2O)c(=O)n1 [azacitidine],RFU C1QL1 (11718748_at),641.97 RFU
